Reference: US20060069132A1, “Azolecarboxamide herbicides” (priority 2004, published 2006)

What was measured:
Surinam grass = test: Test C pre-/postemergence herbicide test; type: in vivo, Urochloa decumbens; details: preemergence
How it was run: (§1)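 Pre/post spray; non-phytotoxic solvent + surfactant. Post-timing 1–4 leaves, 2–18 cm. Read-out: visual % control vs untreated, day 12–14, greenhouse.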

yellow nutsedge = test: Test C pre-/postemergence herbicide test; type: in vivo, Cyperus esculentus; details: preemergence
How it was run: as §1

johnsongrass = test: Test C pre-/postemergence herbicide test; type: in vivo, Sorghum halepense; details: preemergence
How it was run: as §1

redroot pigweed = test: Test A pre-/postemergence herbicide test; type: in vivo, Amaranthus retroflexus; details: for Plant response rating, Pigweed: Postemergence; for Pigweed plant response rating: Preemergence
How it was run: (§2)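 Greenhouse injury scoring (0–100, complete control = 100) at approximately ten days follows simultaneous pre- and postemergence application. Soil received a directed spray after seeding; seedlings of 2–10 cm at the one- to two-leaf stage were sprayed to runoff.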

eastern black nightshade = test: Test C pre-/postemergence herbicide test; type: in vivo, Solanum ptycanthum; details: preemergence
How it was run: as §1

giant foxtail [1] = test: Test A pre-/postemergence herbicide test; type: in vivo, Setaria faberi; details: for Plant response rating, Foxtail, Giant: Postemergence; for Foxtail, Giant plant response rating: Preemergence
How it was run: as §2

giant foxtail [2] = test: Test C pre-/postemergence herbicide test; type: in vivo, Setaria faberi; details: preemergence
How it was run: as §1

barnyardgrass = test: Test A pre-/postemergence herbicide test; type: in vivo, Echinochloa crus-galli; details: for Plant response rating, Barnyardgrass: Postemergence; for Barnyardgrass plant response rating: Preemergence
How it was run: as §2

morningglory = test: Test C pre-/postemergence herbicide test; type: in vivo, Ipomoea coccinea; design: key to Plant response rating, Morningglory: 0 = no effect, 100 = complete control; details: preemergence
How it was run: as §1

velvetleaf = test: Test A pre-/postemergence herbicide test; type: in vivo, Abutilon theophrasti; details: for Plant response rating, Velvetleaf: Postemergence; for Velvetleaf plant response rating: Preemergence
How it was run: as §2

cocklebur = test: Test C pre-/postemergence herbicide test; type: in vivo, Xanthium strumarium; details: preemergence
How it was run: as §1

[3] = 125 g ai/ha, scale 0 (no effect) to 100 (complete control), visual, 12 to 14 days
[4] = 250 g ai/ha, scale 0 to 100 (0 no effect, 100 complete control), visual, 12 to 14 days
[5] = 500 g ai/ha, 0 to 100 scale, 0 no effect, 100 complete control
[6] = 2000 g ai/ha, 0 to 100 scale, 0 no effect, 100 complete control
[7] = 500 g ai/ha, visual rating, 0 to 100 scale (0 no effect, 100 complete control)

CCCCn1nc(C(C)(C)C)cc1C(=O)Nc1cccc(C(=O)NCC)c1 [Compound 41]
90: Plant response rating, Nightshade (eastern black nightshade; [4])
10: Plant response rating, Surinam Grass (Surinam grass; 31 g ai/ha, scale 0 to 100) | Plant response rating, Nightshade (eastern black nightshade; [3]) | Plant response rating, Cocklebur (cocklebur; [4])
65: Pigweed plant response rating (redroot pigweed; [7])
60: Plant response rating, Pigweed (redroot pigweed; [6]) | Plant response rating, Barnyardgrass (barnyardgrass; [6])
40: Plant response rating, Pigweed (redroot pigweed; [5]) | Barnyardgrass plant response rating (barnyardgrass; [7]) | Velvetleaf plant response rating (velvetleaf; [6])
30: Foxtail, Giant plant response rating (giant foxtail [1]; [7]) | Plant response rating, Foxtail, Giant (giant foxtail [2]; [4]) | Plant response rating, Barnyardgrass (barnyardgrass; [5])
70: Foxtail, Giant plant response rating (giant foxtail [1]; [6])
20: Plant response rating (0 = no effect, 100 = complete control), Surinam Grass (Surinam grass; 62 g ai/ha) | Plant response rating, Surinam Grass (Surinam grass; [3]) | Plant response rating, Surinam Grass (Surinam grass; [4]) | Plant response rating, Johnsongrass (johnsongrass; [4]) | Plant response rating, Foxtail, Giant (giant foxtail [1]; [5]) | Plant response rating (0 = no effect, 100 = complete control), Foxtail, Giant (giant foxtail [2]; 62 g ai/ha) | Plant response rating, Foxtail, Giant (giant foxtail [2]; [3]) | Plant response rating, Morningglory (morningglory; [4])
35: Plant response rating, Foxtail, Giant (giant foxtail [1]; [6])
85: Pigweed plant response rating (redroot pigweed; [6])
75: Barnyardgrass plant response rating (barnyardgrass; [6])
25: Plant response rating, Velvetleaf (velvetleaf; [5]) | Plant response rating, Velvetleaf (velvetleaf; [6]) | Velvetleaf plant response rating (velvetleaf; [7])
0: Plant response rating, Nutsedge, Yellow (yellow nutsedge; 31 g ai/ha, scale 0 to 100) | Plant response rating (0 = no effect, 100 = complete control), Nutsedge, Yellow (yellow nutsedge; 62 g ai/ha) | Plant response rating, Nutsedge, Yellow (yellow nutsedge; [3]) | Plant response rating, Nutsedge, Yellow (yellow nutsedge; [4]) | Plant response rating, Johnsongrass (johnsongrass; 31 g ai/ha, scale 0 to 100) | Plant response rating (0 = no effect, 100 = complete control), Johnsongrass (johnsongrass; 62 g ai/ha) | Plant response rating, Nightshade (eastern black nightshade; 31 g ai/ha, scale 0 to 100) | Plant response rating (0 = no effect, 100 = complete control), Nightshade (eastern black nightshade; 62 g ai/ha) | Plant response rating, Foxtail, Giant (giant foxtail [2]; 31 g ai/ha, scale 0 to 100) | Plant response rating, Morningglory (morningglory; 31 g ai/ha, scale 0 to 100) | Plant response rating (0 = no effect, 100 = complete control), Morningglory (morningglory; 62 g ai/ha) | Plant response rating, Morningglory (morningglory; [3]) | Plant response rating, Cocklebur (cocklebur; 31 g ai/ha, scale 0 to 100) | Plant response rating (0 = no effect, 100 = complete control), Cocklebur (cocklebur; 62 g ai/ha) | Plant response rating, Cocklebur (cocklebur; [3])
